{"source": "patent US12036218B2", "about": "“Modulators of airway basal cells for the treatment or prevention of lung diseases” (Fraunhofer Gesellschaft zur Förderung der angewandten …, priority 2020, dated 2024)", "key": {"[1]": {"test_system": "ABCs", "assay": "Cellular vitality of ABCs", "type": "cell-based, human", "conditions": "all used concentrations (600, 210, 75, 25, 8 nM)", "source_text": "(§1) Based on the Connectivity MAP predictions, the inventors tested whether saracatinib, a known SRC inhibitor previously tested in human cancer is able to modulate IPF-ABC phenotype. […] The results were similar in cells obtained from 12 different individuals with IPF (P<0.0001, FIG. 5B). […] Similar data were obtained by testing cell proliferation in the MTT assay (P<0.0001, FIG. 5C)."}, "[2]": {"test_system": "IPF-ABC with IPF lung fibroblasts", "assay": "MTT cell proliferation assay in IPF-ABC / IPF lung fibroblast co-culture", "type": "cell-based, human", "conditions": "in the presence of IPF lung fibroblasts, 21 days; saracatinib 600-8 nM, pirfenidone 1 mM, nintedanib 1 μM", "description": "(§2) FIG. 5: SRC-inhibitor saracatinib abrogates bronchosphere formation. (A-E) Bronchosphere assays of human IPF-ABCs were performed w/wo IPF lung fibroblasts for 21 days. Cell cultures (n=12, in triplicates) were treated with either vehicle, saracatinib (600, 210, 75, 25, 8 nM), pirfenidone (1 mM) or nintedanib (1 μM). […] (G, H) In the same model we used GFP^+ fibroblasts to study fibroblast proliferation. […] For statistical comparison repeated measures ANOVA with Tukey correction for multiple testing was used.\n(§3) ABCs, either derived from IPF patients or HV, were cultured in matrigel (Corning) in a transwell system with or without lung fibroblasts either derived from patients with IPF or normal lung for 21 days (if not otherwise indicated) in the incubator (5% CO2, 37° C.). Medium exchange (BEGM (Lonza, Basel, Switzerland, #CC-3170)/DMEM (Dulbecco's Modified Eagle Medium (Gibco, Swit Fisher Scientific/Germany); ratio 1:1) was done every 7 days. In some experiments lentiviral transduced GFP expressing fibroblasts were used. Conditioned medium of the 3D organoid culture (day 7 and day 14) was used for ELISA and fibroblast stimulation experiments. Sircol assay (Scientific-Biocolor/UK, #S1000) was performed as recommended by the manufacturer on matrigel and conditioned medium harvested after 6 weeks of cell culture. Bronchosphere formation was documented by Axio Vert.A1/Zeiss/Germany and Axio Observer Z1/Zeiss/Germany. For histology, immunohistology and confocal laser microscopy 3D cell cultures were cryopreserved using Tissue-Tek and cryomolds (Hartenstein/Germany; #CMM). Detailed information is given in the supplement."}, "[3]": {"test_system": "lung fibroblasts", "assay": "Fibroblast proliferation (GFP+ fibroblasts) in IPF-ABC co-culture", "type": "cell-based, human", "conditions": "GFP+ fibroblasts co-cultured with IPF-ABC", "description": "as §2, §1\nABCs, either derived from IPF patients or HV, were cultured in matrigel (Corning) in a transwell system with or without lung fibroblasts either derived from patients with IPF or normal lung for 21 days (if not otherwise indicated) in the incubator (5% CO2, 37° C.). […]"}, "[4]": {"test_system": "NRG mice", "assay": "Humanized pulmonary fibrosis model: bleomycin plus intratracheal human IPF-ABCs in NRG mice", "type": "in vivo", "description": "FIG. 6: SRC-inhibitor saracatinib attenuates fibrosis in the humanized mouse model. NRG mice were intratracheally injected with a low dose of bleomycin and 3 days later with human ABCs derived from IPF patients. Mice (n=11 each group, 4 replicates (all data shown)) were treated oropharyngeally with or without saracatinib in a dose of 10 mg/kg once daily starting at day 4 (A-C) or at day 8 (D-F). […] All P values were determined by a paired comparison (t-test) testing the effect of saracatinib treatment for each human IPF cell line.\nTo test the effect of saracatinib on IPF-ABC induced fibrosis and remodeling in-vivo, the inventors returned to the minimal injury xenotransplant model in NRG mice. Overall, the inventors used IPF-ABCs from 38 different individuals with IPF in these experiments. Per IPF subject, IPF-ABCs were used in two animals, one treated with saracatinib and one with vehicle control, to account for interindividual variability. To test the effect of saracatinib on engraftment and development of fibrosis we started treatment at day 4 post injury, one day post IPF-ABC installation for a total of 18 days (FIG. 6A). […] To test the effect of saracatinib on established fibrosis the inventors performed another set of experiments in which treatment was delayed to day 8 when cell engraftment and fibrosis were already established.\nDifferent mice strains were used for the experiments as indicated. B6;129Sv-Rag2tm1Fwa/ZTM (75) (Rag2−/−) and NOD.Cg-Rag1tm1Mom Il2rgtm1Wjl/SzJZtm (76) (NRG) were obtained from the central animal facility (Hannover Medical School, Hannover). NOD.Cg-Prkdcscid Il2rgtm1Wjl Tg(CAGGS-VENUS)1/Ztm (Venus-NSG) mice were kindly provided by Dr. Wiebke Garrels (Hannover Medical School). Mice received bleomycin dissolved in sterile saline at the dose of 1.2 mg/kg intratracheally on day 0. IPF-ABCs, HV-ABCs (Rag 2−/−: 0.3×105, NRG and NSG: 0.2×105) were injected intratracheally on day 3. In some experiments human IPF-ABCs transduced with a lentiviral vector encoding for GFP and luciferase were injected. Pairs of mice received the same IPF-ABC line and were later treated either with vehicle or saractinib (kindly provided by Leslie Cousens AstraZeneca) in a dose of 10 mg/kg, i.g. once daily. For histological and immunohistological analysis, the trachea was cannulated and lungs were insufflated with 4% paraformaldehyde in PBS at a pressure of 25 cm H2O, followed by removal of the heart and inflated lungs en bloc and immersion in 4% paraformaldehyde overnight at 4° C., and the tissues were processed to paraffin wax or were cryopreserved using Tissue Tek® O.C.T.™ compound. […] Collagen content was determined by quantifying hydroxyproline levels according to manufacturer's description. […]"}, "[5]": {"test_system": "IPF-ABC with lung fibroblasts", "assay": "3D co-culture model of IPF-ABC with lung fibroblasts: bronchosphere formation", "type": "cell-based, human", "description": "as §2, §1, §3"}, "[6]": {"test_system": "IPF-ABC", "assay": "MTT cell proliferation assay in IPF-ABC 3D culture", "type": "cell-based, human", "conditions": "IPF-ABCs without fibroblasts, 21 days; saracatinib 600-8 nM, pirfenidone 1 mM, nintedanib 1 μM", "description": "as §2, §1, §3"}, "[7]": {"test_system": "IPF-ABC", "assay": "Human 3D bronchosphere assay, IPF-ABC single culture: bronchosphere formation", "type": "cell-based", "conditions": "IPF-ABC cultured in 3D, 21 days", "description": "as §2, §1, §3"}, "[8]": {"conditions": "10 mg/kg once daily oropharyngeal, treatment from day 4, read at day 21"}, "[9]": {"conditions": "10 mg/kg once daily, treatment delayed to day 8 (day 8 to day 21), established fibrosis"}, "[10]": {"conditions": "pirfenidone 1 mM, nintedanib 1 μM"}}}
{"smiles": "CN1CCN(CCOc2cc(OC3CCOCC3)c3c(Nc4c(Cl)ccc5c4OCO5)ncnc3c2)CC1", "note": "[saracatinib, N-(5-chloro-1,3-benzodioxol-4-yl)-7-[2-(4-methyl-1-piperazinyl)ethoxy]-5-[(tetrahydro-2H-pyran-4-yl]oxy)-4-quinazolinamine]", "values": [{"measurement": "cellular vitality of ABCs", "setting": "[1]", "value": "did not affect"}, {"measurement": "cell proliferation as measured by the MTT assay", "setting": "[2]", "value": "significantly reduced"}, {"measurement": "fibroblast proliferation in the co-culture", "setting": "[3]", "value": "substantially lower"}, {"measurement": "Ashcroft score", "setting": "[4]; [8]", "value": "1.4±0.7"}, {"measurement": "hydroxyproline/total-protein levels", "setting": "[4]; [8]", "value": "0.7±0.6"}, {"measurement": "Ashcroft score", "setting": "[4]; [9]", "value": "significant reductions"}, {"measurement": "hydroxyproline content", "setting": "[4]; [9]", "value": "significant reductions"}, {"measurement": "bronchosphere formation", "setting": "[5]; saracatinib 8 nM", "value": "did not have an effect"}, {"measurement": "bronchosphere formation", "setting": "[5]; saracatinib 25 nM", "value": "lower effect"}, {"measurement": "bronchosphere formation", "setting": "[5]; saracatinib 600 nM, 210 nM and 75 nM", "value": "completely blocked"}, {"measurement": "cell proliferation as measured by MTI assay", "setting": "[6]", "value": "significantly reduced"}, {"measurement": "bronchosphere formation", "setting": "[7]; saracatinib 600 nM, 210 nM, and 75 nM", "value": "complete abrogation"}]}
{"smiles": "Cc1ccc(=O)n(-c2ccccc2)c1", "note": "[pirfenidone]", "values": [{"measurement": "cell proliferation as measured by the MTT assay", "setting": "[2]", "value": "less reduced"}, {"measurement": "bronchosphere formation", "setting": "[5]; [10]", "value": "significantly reduced bronchosphere formation, but not completely"}, {"measurement": "cell proliferation as measured by MTI assay", "setting": "[6]", "value": "slightly"}, {"measurement": "bronchosphere formation", "setting": "[7]; [10]", "value": "no visible effect"}]}
{"smiles": "COC(=O)c1ccc2c(c1)NC(=O)/C2=C(\\Nc1ccc(N(C)C(=O)CN2CCN(C)CC2)cc1)c1ccccc1", "note": "[nintedanib]", "values": [{"measurement": "cell proliferation as measured by the MTT assay", "setting": "[2]", "value": "less reduced"}, {"measurement": "bronchosphere formation", "setting": "[5]; [10]", "value": "significantly reduced bronchosphere formation, but not completely"}, {"measurement": "cell proliferation as measured by MTI assay", "setting": "[6]", "value": "slightly"}, {"measurement": "bronchosphere formation", "setting": "[7]; [10]", "value": "no visible effect"}]}
